Results taken from patent US20110039879A1, “METHODS FOR INCREASING WHITE BLOOD CELLS” (FibroGen ,Inc., priority 2007, published 2011).

How the values were obtained:
Format in all cases: in vivo, Swiss-Webster mice
[1] = test system: total white blood cell (WBC); assay: Total white blood cells by complete blood count on day 8, dosing day 1, 3, 5; conditions: Mus musculus, 192 h, mice, oral gavage, measured on day 8, read-out: Total WBC % Increase Over Control; for change in vivo at 100 mg/kg: 100 mg/kg on day 1, day 3 and day 5; for change in vivo at 60 mg/kg: 60 mg/kg on day 1, day 3 and day 5
How it was run: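 Male Swiss-Webster mice received test compound by oral gavage with a ball-tipped gavage needle on day 1, day 3 and day 5. On day 8, 200 μl of blood was collected and total white blood cell levels were determined by complete blood count on a CellDyn cell analyzer (Abbott Laboratories), expressed as percent change relative to control.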

[2] = test system: neutrophils; assay: Neutrophils by complete blood count on day 8, dosing day 1, 3, 5; conditions: Mus musculus, Neutrophil, 192 h, mice, oral gavage, measured on day 8, read-out: Neutrophils % Increase Over Control; for change in vivo at 100 mg/kg: 100 mg/kg on day 1, day 3 and day 5; for change in vivo at 60 mg/kg: 60 mg/kg on day 1, day 3 and day 5
Protocol: (§1) To examine the effect of compounds and methods of the present invention on increasing white blood cells, the following studies were performed. In one series of experiments, male Swiss-Webster mice were administered various compounds of the present invention via oral gavage using a ball-tipped gavage needle. […] Animals were dosed once daily for 3 or 4 days. Six hours after the final dosing, 200 μl blood samples were collected and total white blood cell, neutrophil, and lymphocyte levels were measured by complete blood count (CBC) using a CellDyn cell analyzer (Abbott Laboratories).
(§2) In another series of experiments, male Swiss-Webster mice were administered various compounds (see Table 7 and Table 8) of the present invention via oral gavage using a ball-tipped gavage needle. […] Total WBC, neutrophil, lymphocyte, and monocyte levels were measured in mice as described above on day 8 following administration of compound on day 1, day 3, and day 5.

[3] = test system: lymphocytes; assay: Lymphocytes by complete blood count on day 8, dosing day 1, 3, 5; conditions: mice, oral gavage, measured on day 8
Protocol: as §1, §2

[4] = test system: monocytes; assay: Monocytes by complete blood count on day 8, dosing day 1, 3, 5; conditions: mice, oral gavage, measured on day 8
[5] = test system: total white blood cell (WBC); assay: Total white blood cells by complete blood count on day 8, dosing day 1, 3, 5; conditions: mice, oral gavage, measured on day 8
[6] = test system: neutrophils; assay: Neutrophils by complete blood count on day 8, dosing day 1, 3, 5; conditions: mice, oral gavage, measured on day 8
[7] = Mus musculus, Lymphocyte, 192 h, 100 mg/kg on day 1, day 3 and day 5, read-out: Lymphocytes % Increase Over Control
[8] = 100 mg/kg on day 1, day 3 and day 5
[9] = Mus musculus, Monocyte, 192 h, 100 mg/kg on day 1, day 3 and day 5, read-out: Monocytes % Increase Over Control
[10] = Mus musculus, Lymphocyte, 192 h, 60 mg/kg on day 1, day 3 and day 5, read-out: Lymphocytes % Increase Over Control
[11] = 60 mg/kg on day 1, day 3 and day 5
[12] = Mus musculus, Monocyte, 192 h, 60 mg/kg on day 1, day 3 and day 5, read-out: Monocytes % Increase Over Control
[13] = 20 mg/kg on day 1, day 3 and day 5
[14] = 200 mg/kg on day 1, day 3 and day 5

Question: `Cc1ccc(Oc2cccc3c(C#N)nc(C(=O)NCC(=O)O)c(O)c23)cc1` [Compound BA, [(1-Cyano-4-hydroxy-5-p-tolyloxy-isoquinoline-3-carbonyl)-amino]-acetic acid] was tested. Which change in vivo at 100 mg/kg [1] did it give?
Answer: 434%

Question: What about the change in vivo at 100 mg/kg [2] of the same compound?
Answer: 38%

Question: What about the change in vivo at 100 mg/kg [3, 7] of the same compound?
Answer: 514%

Question: What about the Lymphocytes [3, 8] of the same compound?
Answer: 23.8 10^3 cells/μl

Question: And the change in vivo at 100 mg/kg [4, 9]?
Answer: 20%

Question: And the Monocytes [4, 8]?
Answer: 0.2 10^3 cells/μl

Question: And the “Total WBC” value [5, 8]?
Answer: 24.7 10^3 cells/μl

Question: What about the Neutrophils [6, 8] of the same compound?
Answer: 0.7 10^3 cells/μl

Question: For `Cc1cc(Cl)cc(C)c1Oc1ccc2c(C#N)nc(C(=O)NCC(=O)O)c(O)c2c1` [Compound J, {[6-(4-Chloro-2,6-dimethyl-phenoxy)-1-cyano-4-hydroxy-isoquinoline-3-carbonyl]-amino}-acetic acid], which change in vivo at 100 mg/kg [1] is on record?
Answer: 208%

Question: What about the change in vivo at 100 mg/kg [2] of the same compound?
Answer: 8%

Question: What about the change in vivo at 100 mg/kg [3, 7] of the same compound?
Answer: 236%

Question: What about the Lymphocytes [3, 8] of the same compound?
Answer: 21.7 10^3 cells/μl

Question: What about the change in vivo at 100 mg/kg [4, 9] of the same compound?
Answer: 300%

Question: What about the Monocytes [4, 8] of the same compound?
Answer: 0.3 10^3 cells/μl

Question: What about the “Total WBC” value [5, 8] of the same compound?
Answer: 23.0 10^3 cells/μl

Question: And the Neutrophils [6, 8]?
Answer: 0.9 10^3 cells/μl

Question: Which change in vivo at 60 mg/kg [1] does the source give for `N#Cc1nc(C(=O)NCC(=O)O)c(O)c2ccn(Cc3ccc(-c4ccccc4)cc3)c12` [Compound AU, [(1-Biphenyl-4-ylmethyl-7-cyano-4-hydroxy-1H-pyrrolo[2,3-c]pyridine-5-carbonyl)-amino]-acetic acid] here?
Answer: 290%

Question: What about the change in vivo at 60 mg/kg [2] of the same compound?
Answer: 63%

Question: And the change in vivo at 60 mg/kg [3, 10]?
Answer: 332%

Question: And the Lymphocytes [3, 11]?
Answer: 21.0 10^3 cells/μl

Question: And the change in vivo at 60 mg/kg [4, 12]?
Answer: 118%

Question: What about the Monocytes [4, 11] of the same compound?
Answer: 0.3 10^3 cells/μl

Question: And the “Total WBC” value [5, 11]?
Answer: 22.6 10^3 cells/μl

Question: And the Neutrophils [6, 11]?
Answer: 1.1 10^3 cells/μl

Question: For `N#Cc1nc(C(=O)NCC(=O)O)c(O)c2ccn(Cc3ccc(F)cc3)c12` [Compound O, {[7-Cyano-1-(4-fluoro-benzyl)-4-hydroxy-1H-pyrrolo[2,3-c]pyridine-5-carbonyl]-amino}-acetic acid], which change in vivo at 60 mg/kg [1] is on record?
Answer: 86%

Question: And the change in vivo at 60 mg/kg [2]?
Answer: -3%

Question: What about the change in vivo at 60 mg/kg [3, 10] of the same compound?
Answer: 102%

Question: And the Lymphocytes [3, 11]?
Answer: 10.9 10^3 cells/μl

Question: What about the change in vivo at 60 mg/kg [4, 12] of the same compound?
Answer: 140%

Question: And the Monocytes [4, 11]?
Answer: 0.2 10^3 cells/μl

Question: What about the “Total WBC” value [5, 11] of the same compound?
Answer: 11.9 10^3 cells/μl

Question: And the Neutrophils [6, 11]?
Answer: 0.8 10^3 cells/μl

Question: How did the change in vivo at 100 mg/kg [1] turn out when `Cc1cccc(C)c1Oc1ccc2c(O)c(C(=O)NCC(=O)O)nc(C#N)c2c1` [Compound AI, {[1-Cyano-7-(2,6-dimethyl-phenoxy)-4-hydroxy-isoquinoline-3-carbonyl]-amino}-acetic acid] was run?
Answer: 266%

Question: What about the change in vivo at 100 mg/kg [2] of the same compound?
Answer: 45%

Question: And the change in vivo at 100 mg/kg [3, 7]?
Answer: 303%

Question: And the Lymphocytes [3, 8]?
Answer: 17.4 10^3 cells/μl

Question: What about the change in vivo at 100 mg/kg [4, 9] of the same compound?
Answer: 0%

Question: What about the Monocytes [4, 8] of the same compound?
Answer: 0.1 10^3 cells/μl

Question: What about the “Total WBC” value [5, 8] of the same compound?
Answer: 18.3 10^3 cells/μl

Question: And the Neutrophils [6, 8]?
Answer: 0.7 10^3 cells/μl

Question: For `O=C(O)CNC(=O)c1c(O)c2ccccc2sc1=O` [Compound BF, [(4-Hydroxy-2-oxo-2H-thiochromene-3-carbonyl)-amino]-acetic acid], which change in vivo at 20 mg/kg [1, 13] is on record?
Answer: 17%

Question: And the change in vivo at 20 mg/kg [2, 13]?
Answer: 65%

Question: What about the change in vivo at 20 mg/kg ([3]; Mus musculus, Lymphocyte, 192 h, 20 mg/kg on day 1, day 3 and day 5, read-out: Lymphocytes % Increase Over Control) of the same compound?
Answer: 12%

Question: What about the Lymphocytes [3, 13] of the same compound?
Answer: 7.1 10^3 cells/μl

Question: What about the change in vivo at 20 mg/kg ([4]; Mus musculus, Monocyte, 192 h, 20 mg/kg on day 1, day 3 and day 5, read-out: Monocytes % Increase Over Control) of the same compound?
Answer: 64%

Question: And the Monocytes [4, 13]?
Answer: 0.2 10^3 cells/μl

Question: And the “Total WBC” value [5, 13]?
Answer: 8.4 10^3 cells/μl

Question: And the Neutrophils [6, 13]?
Answer: 1.0 10^3 cells/μl

Question: `N#Cc1nc(C(=O)NCC(=O)O)c(O)c2c(Oc3ccc(F)cc3)cccc12` [Compound G, {[1-Cyano-5-(4-fluoro-phenoxy)-4-hydroxy-isoquinoline-3-carbonyl]-amino}-acetic acid] was tested. Which change in vivo at 200 mg/kg [1, 14] did it give?
Answer: 138%

Question: And the change in vivo at 200 mg/kg [2, 14]?
Answer: 48%

Question: What about the change in vivo at 200 mg/kg ([3]; Mus musculus, Lymphocyte, 192 h, 200 mg/kg on day 1, day 3 and day 5, read-out: Lymphocytes % Increase Over Control) of the same compound?
Answer: 148%

Question: And the Lymphocytes [3, 14]?
Answer: 13.2 10^3 cells/μl

Question: And the change in vivo at 200 mg/kg ([4]; Mus musculus, Monocyte, 192 h, 200 mg/kg on day 1, day 3 and day 5, read-out: Monocytes % Increase Over Control)?
Answer: 317%

Question: What about the Monocytes [4, 14] of the same compound?
Answer: 0.2 10^3 cells/μl

Question: And the “Total WBC” value [5, 14]?
Answer: 14.3 10^3 cells/μl

Question: And the Neutrophils [6, 14]?
Answer: 0.8 10^3 cells/μl
